Assay results reported in US20260215428A1, “WEED CONTROL METHOD” (SYNGENTA CROP PROTECTION AG, priority 2023, published 2026).

Experiments:
Format in all cases: in vivo
Conditions in all cases: 21 days after application
Lolium multiflorum = experiment: Further glasshouse test versus other ACCase-inhibiting herbicides, Table B2-1
Source text: (§1) Further tests were employed to test the efficacy of a compound of Formula I versus other ACCase-inhibiting herbicides. The five main targets were Lolium multiflorum, Eleusine indica, Digitaria insularis, Sorghum halepense and Echinochloa crus-galli. Collectively, the populations contained all the major target-site resistance mutations affecting ACCase herbicides. Two L. multiflorum (LM-NTSR-1 and LM-NTSR-2) and one E. crus-galli (ECG-NTSR-1) populations were characterised exclusively by non-target-site resistance (“NTSR”). The target-site resistant L. multiflorum and E. indication populations were 100% homozygous for different ACCase mutations whilst the D. insularis, S. halepense and E. crus-galli samples contained a mixture of homozygous wild and mutant individuals at different genotypic frequencies. Additional underlying NTSR cannot be ruled out in the populations characterised by target-site resistance.
(§2) Around 50 seeds of each of the 24 weed populations were sown in 12-cm pots containing a mixture of peat and compost in a 1:1 ratio. The pots were watered, fertilised and kept in controlled glasshouse conditions set at 24° C./16 hr day, 18° C. night, 65% relative humidity, and a photon flux density of approximately 250 μmol quanta m^−2 s^−1 for Lolium multiflorum. The E. indica, D. insularis, S. halepense and E. crus-galli plants were kept in a separate glasshouse bay characterised by a 17 H photoperiod of 180 μmol m^−2 s^−1 with temperatures of 25° C. day and 19° C. night and 65% relative humidity. When the plants were at the two to four-leaf stage, they were treated with the various ACCase-inhibiting herbicides at 0, 15, 30, 60, 120 and 240 g ai ha^−1 in a spray cabinet mounted with a single mobile Teejet flat fan nozzle (11002VS) calibrated to deliver 200 L ha^−1 at 200 kPa. The L. multiflorum populations were treated by a compound of Formula Ic, clodinafop-propargyl, pinoxaden, cycloxydim and clethodim and the warm season grass weeds E. indica, D. insularis, S. halepense and E. crus-galli were sprayed with a Compound Ic and the commonly employed haloxyfop-methyl and clethodim. Three replicate pots were used per population. Plants were assessed for visual damage compared to the untreated control 21 days after application (0=0% damage; 100=100% damage).

Eleusine indica = experiment: Further glasshouse test versus other ACCase-inhibiting herbicides, Table B2-2
Source text: as §1, §2

Digitaria insularis = experiment: Further glasshouse test versus other ACCase-inhibiting herbicides, Table B2-3
Source text: as §1, §2

Sorghum halepense = experiment: Further glasshouse test versus other ACCase-inhibiting herbicides, Table B2-4
Source text: as §1, §2

Echinochloa Crus-galli = experiment: Further glasshouse test versus other ACCase-inhibiting herbicides, Table B2-5
Source text: as §1, §2

C#CCOC(=O)[C@@H](C)Oc1ccc(Oc2ncc(Cl)cc2F)cc1 [Clodinafop-propargyl, clodinafop-propargyl]
visual damage (Lolium multiflorum; biotype C2088R, 15 g/ha): 0%
visual damage (Lolium multiflorum; biotype C2088R, 30 g/ha): 0%
visual damage (Lolium multiflorum; biotype C2088R, 60 g/ha): 0%
visual damage (Lolium multiflorum; biotype C2088R, 120 g/ha): 0%
visual damage (Lolium multiflorum; biotype C2088R, 240 g/ha): 7%
visual damage (Lolium multiflorum; biotype D2078G, 15 g/ha): 0%
visual damage (Lolium multiflorum; biotype D2078G, 30 g/ha): 0%
visual damage (Lolium multiflorum; biotype D2078G, 60 g/ha): 0%
visual damage (Lolium multiflorum; biotype D2078G, 120 g/ha): 0%
visual damage (Lolium multiflorum; biotype D2078G, 240 g/ha): 0%
visual damage (Lolium multiflorum; biotype I1781L, 15 g/ha): 7%
visual damage (Lolium multiflorum; biotype I1781L, 30 g/ha): 7%
visual damage (Lolium multiflorum; biotype I1781L, 60 g/ha): 7%
visual damage (Lolium multiflorum; biotype I1781L, 120 g/ha): 10%
visual damage (Lolium multiflorum; biotype I1781L, 240 g/ha): 33%
visual damage (Lolium multiflorum; biotype Sensitive, 15 g/ha): 67%
visual damage (Lolium multiflorum; biotype Sensitive, 30 g/ha): 98%
visual damage (Lolium multiflorum; biotype Sensitive, 60 g/ha): 100%
visual damage (Lolium multiflorum; biotype Sensitive, 120 g/ha): 100%
visual damage (Lolium multiflorum; biotype Sensitive, 240 g/ha): 100%
visual damage (Lolium multiflorum; biotype W1999S, 15 g/ha): 0%
visual damage (Lolium multiflorum; biotype W1999S, 30 g/ha): 0%
visual damage (Lolium multiflorum; biotype W1999S, 60 g/ha): 0%
visual damage (Lolium multiflorum; biotype W1999S, 120 g/ha): 0%
visual damage (Lolium multiflorum; biotype W1999S, 240 g/ha): 0%
visual damage (Lolium multiflorum; biotype W2027C, 15 g/ha): 0%
visual damage (Lolium multiflorum; biotype W2027C, 30 g/ha): 0%
visual damage (Lolium multiflorum; biotype W2027C, 60 g/ha): 0%
visual damage (Lolium multiflorum; biotype W2027C, 120 g/ha): 0%
visual damage (Lolium multiflorum; biotype W2027C, 240 g/ha): 0%
visual damage (Lolium multiflorum; population LM-NTSR-1 (non-target-site resistance), 15 g/ha): 0%
visual damage (Lolium multiflorum; population LM-NTSR-1 (non-target-site resistance), 30 g/ha): 0%
visual damage (Lolium multiflorum; population LM-NTSR-1 (non-target-site resistance), 60 g/ha): 0%
visual damage (Lolium multiflorum; population LM-NTSR-1 (non-target-site resistance), 120 g/ha): 27%
visual damage (Lolium multiflorum; population LM-NTSR-1 (non-target-site resistance), 240 g/ha): 52%
visual damage (Lolium multiflorum; population LM-NTSR-2 (non-target-site resistance), 15 g/ha): 0%
visual damage (Lolium multiflorum; population LM-NTSR-2 (non-target-site resistance), 30 g/ha): 0%
visual damage (Lolium multiflorum; population LM-NTSR-2 (non-target-site resistance), 60 g/ha): 0%
visual damage (Lolium multiflorum; population LM-NTSR-2 (non-target-site resistance), 120 g/ha): 0%
visual damage (Lolium multiflorum; population LM-NTSR-2 (non-target-site resistance), 240 g/ha): 0%

COC(=O)C(C)Oc1ccc(Oc2ncc(C(F)(F)F)cc2Cl)cc1 (stereo not shown) [Haloxyfop-p-methyl, haloxyfop-methyl]
visual damage (Eleusine indica; biotype D2078G, 15 g/ha): 0%
visual damage (Eleusine indica; biotype D2078G, 30 g/ha): 0%
visual damage (Eleusine indica; biotype D2078G, 60 g/ha): 60%
visual damage (Eleusine indica; biotype D2078G, 120 g/ha): 95%
visual damage (Eleusine indica; biotype D2078G, 240 g/ha): 88%
visual damage (Eleusine indica; biotype G2096A, 15 g/ha): 3%
visual damage (Eleusine indica; biotype G2096A, 30 g/ha): 3%
visual damage (Eleusine indica; biotype G2096A, 60 g/ha): 23%
visual damage (Eleusine indica; biotype G2096A, 120 g/ha): 30%
visual damage (Eleusine indica; biotype G2096A, 240 g/ha): 53%
visual damage (Eleusine indica; biotype I2041N, 15 g/ha): 0%
visual damage (Eleusine indica; biotype I2041N, 30 g/ha): 7%
visual damage (Eleusine indica; biotype I2041N, 60 g/ha): 0%
visual damage (Eleusine indica; biotype I2041N, 120 g/ha): 10%
visual damage (Eleusine indica; biotype I2041N, 240 g/ha): 0%
visual damage (Eleusine indica; biotype Sensitive, 15 g/ha): 100%
visual damage (Eleusine indica; biotype Sensitive, 30 g/ha): 100%
visual damage (Eleusine indica; biotype Sensitive, 60 g/ha): 100%
visual damage (Eleusine indica; biotype Sensitive, 120 g/ha): 100%
visual damage (Eleusine indica; biotype Sensitive, 240 g/ha): 100%
visual damage (Eleusine indica; biotype W2027C, 15 g/ha): 0%
visual damage (Eleusine indica; biotype W2027C, 30 g/ha): 0%
visual damage (Eleusine indica; biotype W2027C, 60 g/ha): 17%
visual damage (Eleusine indica; biotype W2027C, 120 g/ha): 30%
visual damage (Eleusine indica; biotype W2027C, 240 g/ha): 33%
visual damage (Digitaria insularis; biotype Sensitive, 15 g/ha): 100%
visual damage (Digitaria insularis; biotype Sensitive, 30 g/ha): 100%
visual damage (Digitaria insularis; biotype Sensitive, 60 g/ha): 100%
visual damage (Digitaria insularis; biotype Sensitive, 120 g/ha): 100%
visual damage (Digitaria insularis; biotype Sensitive, 240 g/ha): 100%
visual damage (Digitaria insularis; biotype W2027C, 15 g/ha): 76%
visual damage (Digitaria insularis; biotype W2027C, 30 g/ha): 53%
visual damage (Digitaria insularis; biotype W2027C, 60 g/ha): 93%
visual damage (Digitaria insularis; biotype W2027C, 120 g/ha): 100%
visual damage (Digitaria insularis; biotype W2027C, 240 g/ha): 100%
visual damage (Sorghum halepense; biotype Sensitive, 15 g/ha): 93%
visual damage (Sorghum halepense; biotype Sensitive, 30 g/ha): 100%
visual damage (Sorghum halepense; biotype Sensitive, 60 g/ha): 100%
visual damage (Sorghum halepense; biotype Sensitive, 120 g/ha): 100%
visual damage (Sorghum halepense; biotype Sensitive, 240 g/ha): 100%
visual damage (Sorghum halepense; biotype W2027C, 15 g/ha): 38%
visual damage (Sorghum halepense; biotype W2027C, 30 g/ha): 50%
visual damage (Sorghum halepense; biotype W2027C, 60 g/ha): 68%
visual damage (Sorghum halepense; biotype W2027C, 120 g/ha): 68%
visual damage (Sorghum halepense; biotype W2027C, 240 g/ha): 78%
visual damage (Echinochloa Crus-galli; biotype Sensitive, 15 g/ha): 100%
visual damage (Echinochloa Crus-galli; biotype Sensitive, 30 g/ha): 100%
visual damage (Echinochloa Crus-galli; biotype Sensitive, 60 g/ha): 100%
visual damage (Echinochloa Crus-galli; biotype Sensitive, 120 g/ha): 100%
visual damage (Echinochloa Crus-galli; biotype Sensitive, 240 g/ha): 100%
visual damage (Echinochloa Crus-galli; biotype W2027C, 15 g/ha): 3%
visual damage (Echinochloa Crus-galli; biotype W2027C, 30 g/ha): 75%
visual damage (Echinochloa Crus-galli; biotype W2027C, 60 g/ha): 73%
visual damage (Echinochloa Crus-galli; biotype W2027C, 120 g/ha): 100%
visual damage (Echinochloa Crus-galli; biotype W2027C, 240 g/ha): 100%
visual damage (Echinochloa Crus-galli; population ECG-NTSR-1 (non-target-site resistance), 15 g/ha): 73%
visual damage (Echinochloa Crus-galli; population ECG-NTSR-1 (non-target-site resistance), 30 g/ha): 87%
visual damage (Echinochloa Crus-galli; population ECG-NTSR-1 (non-target-site resistance), 60 g/ha): 100%
visual damage (Echinochloa Crus-galli; population ECG-NTSR-1 (non-target-site resistance), 120 g/ha): 100%
visual damage (Echinochloa Crus-galli; population ECG-NTSR-1 (non-target-site resistance), 240 g/ha): 100%
